# Measured values taken from PMC10009787 (ACS Medicinal Chemistry Letters, 2023).
# pIC50: −log10 of the molar value. Like-named read-outs stand apart in the source and are kept apart here.
# Legend:
# BTK = BTK (Homo sapiens, UniProt Q06187); assay: SelectScreen kinase profiling / Z′-Lyte kinase assay
# FYN = FYN (Homo sapiens, UniProt P06241); assay: SelectScreen kinase profiling; type: biochemical; conditions: average of duplicate
# BMX = biological target: T1, BMX (Homo sapiens, UniProt P51813); assay: AssayQuant kinact/Ki profiling, PhosphoSens CSox-based kinetic assay; type: biochemical; set-up: purchased ThermoFisher / Life Technologies SelectScreen PV3371; conditions: for kinact/KI / BMX kinact/Ki: 5.0 nM enzyme, 1000 µM ATP, two step fit; for kinact: fitted value, two step
# T1 sequence (P51813 1-675): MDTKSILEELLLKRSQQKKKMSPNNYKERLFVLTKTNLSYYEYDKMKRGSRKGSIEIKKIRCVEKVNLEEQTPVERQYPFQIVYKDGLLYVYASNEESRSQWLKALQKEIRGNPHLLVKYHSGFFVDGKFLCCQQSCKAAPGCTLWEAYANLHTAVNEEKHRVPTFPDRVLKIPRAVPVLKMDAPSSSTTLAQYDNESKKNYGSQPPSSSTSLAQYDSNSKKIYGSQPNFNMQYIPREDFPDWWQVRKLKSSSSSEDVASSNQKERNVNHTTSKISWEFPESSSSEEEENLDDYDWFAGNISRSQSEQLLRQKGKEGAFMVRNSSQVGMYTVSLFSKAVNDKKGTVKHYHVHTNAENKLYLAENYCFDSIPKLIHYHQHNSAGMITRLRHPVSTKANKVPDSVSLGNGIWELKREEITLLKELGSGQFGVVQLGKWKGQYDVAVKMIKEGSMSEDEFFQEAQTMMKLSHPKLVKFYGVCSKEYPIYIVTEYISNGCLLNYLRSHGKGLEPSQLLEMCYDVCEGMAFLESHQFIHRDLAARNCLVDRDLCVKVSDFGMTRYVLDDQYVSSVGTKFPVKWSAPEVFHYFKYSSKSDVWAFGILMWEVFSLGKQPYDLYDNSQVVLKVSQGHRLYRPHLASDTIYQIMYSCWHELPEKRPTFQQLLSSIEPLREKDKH
# EGFR (ErbB1) = EGFR (ErbB1) (Homo sapiens, UniProt P00533); assay: SelectScreen kinase profiling / Z′-Lyte kinase assay; conditions: for Hillslope: EGFR IC50 curve
# Chain of EGFR (ErbB1) (P00533 668-1210 limits assumed): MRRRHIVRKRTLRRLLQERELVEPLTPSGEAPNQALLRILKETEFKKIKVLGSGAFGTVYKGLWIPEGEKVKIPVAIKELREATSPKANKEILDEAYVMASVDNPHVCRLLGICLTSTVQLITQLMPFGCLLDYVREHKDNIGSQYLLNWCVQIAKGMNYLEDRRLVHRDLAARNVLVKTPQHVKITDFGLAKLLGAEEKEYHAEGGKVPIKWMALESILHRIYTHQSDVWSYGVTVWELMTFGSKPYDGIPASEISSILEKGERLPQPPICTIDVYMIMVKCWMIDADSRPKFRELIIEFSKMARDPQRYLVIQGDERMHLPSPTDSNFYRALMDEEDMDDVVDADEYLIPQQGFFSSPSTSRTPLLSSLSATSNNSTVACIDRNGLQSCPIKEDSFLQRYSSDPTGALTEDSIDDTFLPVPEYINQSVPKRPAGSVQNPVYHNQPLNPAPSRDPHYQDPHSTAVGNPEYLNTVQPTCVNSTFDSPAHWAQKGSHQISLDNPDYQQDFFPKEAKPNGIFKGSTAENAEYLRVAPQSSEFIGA
# RET M918T = RET M918T (Homo sapiens, UniProt P07949, M918T); assay: SelectScreen kinase profiling; type: biochemical; conditions: average of duplicate
# Chain of RET M918T (P07949 658-1114 M918T limits assumed): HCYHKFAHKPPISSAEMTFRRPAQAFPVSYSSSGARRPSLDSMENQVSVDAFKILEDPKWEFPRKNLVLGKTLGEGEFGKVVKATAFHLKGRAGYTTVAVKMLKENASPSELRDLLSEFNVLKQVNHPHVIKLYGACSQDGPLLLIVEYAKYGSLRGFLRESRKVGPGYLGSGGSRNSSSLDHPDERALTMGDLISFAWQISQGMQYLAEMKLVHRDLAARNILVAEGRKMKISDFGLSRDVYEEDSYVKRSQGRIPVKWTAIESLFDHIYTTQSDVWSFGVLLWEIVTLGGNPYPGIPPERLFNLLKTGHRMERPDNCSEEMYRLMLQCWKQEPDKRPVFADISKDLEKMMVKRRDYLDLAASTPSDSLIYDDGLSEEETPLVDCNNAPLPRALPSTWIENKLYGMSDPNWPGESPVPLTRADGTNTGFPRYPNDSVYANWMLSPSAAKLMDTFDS
# TNK1 = TNK1 (Homo sapiens, UniProt Q13470); assay: SelectScreen kinase profiling; type: biochemical; conditions: average of duplicate
# LYN B = LYN B (Homo sapiens, UniProt P07948); assay: SelectScreen kinase profiling; type: biochemical; conditions: average of duplicate
# Chain of LYN B (P07948 1-491 isoform P07948-2): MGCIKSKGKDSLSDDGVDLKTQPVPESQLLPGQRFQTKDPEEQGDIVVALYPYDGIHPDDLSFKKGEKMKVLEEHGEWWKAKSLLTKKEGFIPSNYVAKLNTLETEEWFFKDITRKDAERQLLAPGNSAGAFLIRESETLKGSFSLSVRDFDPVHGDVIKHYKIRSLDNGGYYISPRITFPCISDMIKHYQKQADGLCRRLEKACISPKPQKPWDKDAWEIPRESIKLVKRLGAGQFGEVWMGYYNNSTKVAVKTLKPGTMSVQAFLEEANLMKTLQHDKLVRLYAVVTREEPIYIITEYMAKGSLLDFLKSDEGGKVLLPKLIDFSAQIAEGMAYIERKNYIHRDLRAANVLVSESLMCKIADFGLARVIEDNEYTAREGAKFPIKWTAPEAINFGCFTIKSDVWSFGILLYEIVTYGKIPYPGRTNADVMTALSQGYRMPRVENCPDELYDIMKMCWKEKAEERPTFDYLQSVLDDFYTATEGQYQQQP
# FLT3 = FLT3 (Homo sapiens, UniProt P36888); assay: SelectScreen kinase profiling; type: biochemical; conditions: average of duplicate
# HCK = HCK (Homo sapiens, UniProt P08631); assay: SelectScreen kinase profiling / Z′-Lyte kinase assay
# Chain of HCK (P08631 whole entry): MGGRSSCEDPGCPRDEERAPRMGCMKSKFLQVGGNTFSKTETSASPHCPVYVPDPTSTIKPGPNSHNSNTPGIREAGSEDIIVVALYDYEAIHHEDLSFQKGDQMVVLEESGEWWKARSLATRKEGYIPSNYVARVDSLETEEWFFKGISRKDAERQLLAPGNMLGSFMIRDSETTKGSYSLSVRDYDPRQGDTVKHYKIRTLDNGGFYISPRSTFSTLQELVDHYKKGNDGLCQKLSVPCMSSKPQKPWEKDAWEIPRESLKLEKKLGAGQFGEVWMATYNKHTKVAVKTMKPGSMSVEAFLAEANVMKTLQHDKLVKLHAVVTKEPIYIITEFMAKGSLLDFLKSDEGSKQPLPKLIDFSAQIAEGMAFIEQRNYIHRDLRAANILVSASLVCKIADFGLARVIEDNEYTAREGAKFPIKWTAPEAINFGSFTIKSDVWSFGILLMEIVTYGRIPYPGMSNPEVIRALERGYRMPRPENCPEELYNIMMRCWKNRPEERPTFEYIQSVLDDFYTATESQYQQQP
# ABL2 (Arg) = ABL2 (Arg) (Homo sapiens, UniProt P42684); assay: SelectScreen kinase profiling; type: biochemical; conditions: average of duplicate
# Chain of ABL2 (Arg) (P42684 whole entry, the tested form may be a part): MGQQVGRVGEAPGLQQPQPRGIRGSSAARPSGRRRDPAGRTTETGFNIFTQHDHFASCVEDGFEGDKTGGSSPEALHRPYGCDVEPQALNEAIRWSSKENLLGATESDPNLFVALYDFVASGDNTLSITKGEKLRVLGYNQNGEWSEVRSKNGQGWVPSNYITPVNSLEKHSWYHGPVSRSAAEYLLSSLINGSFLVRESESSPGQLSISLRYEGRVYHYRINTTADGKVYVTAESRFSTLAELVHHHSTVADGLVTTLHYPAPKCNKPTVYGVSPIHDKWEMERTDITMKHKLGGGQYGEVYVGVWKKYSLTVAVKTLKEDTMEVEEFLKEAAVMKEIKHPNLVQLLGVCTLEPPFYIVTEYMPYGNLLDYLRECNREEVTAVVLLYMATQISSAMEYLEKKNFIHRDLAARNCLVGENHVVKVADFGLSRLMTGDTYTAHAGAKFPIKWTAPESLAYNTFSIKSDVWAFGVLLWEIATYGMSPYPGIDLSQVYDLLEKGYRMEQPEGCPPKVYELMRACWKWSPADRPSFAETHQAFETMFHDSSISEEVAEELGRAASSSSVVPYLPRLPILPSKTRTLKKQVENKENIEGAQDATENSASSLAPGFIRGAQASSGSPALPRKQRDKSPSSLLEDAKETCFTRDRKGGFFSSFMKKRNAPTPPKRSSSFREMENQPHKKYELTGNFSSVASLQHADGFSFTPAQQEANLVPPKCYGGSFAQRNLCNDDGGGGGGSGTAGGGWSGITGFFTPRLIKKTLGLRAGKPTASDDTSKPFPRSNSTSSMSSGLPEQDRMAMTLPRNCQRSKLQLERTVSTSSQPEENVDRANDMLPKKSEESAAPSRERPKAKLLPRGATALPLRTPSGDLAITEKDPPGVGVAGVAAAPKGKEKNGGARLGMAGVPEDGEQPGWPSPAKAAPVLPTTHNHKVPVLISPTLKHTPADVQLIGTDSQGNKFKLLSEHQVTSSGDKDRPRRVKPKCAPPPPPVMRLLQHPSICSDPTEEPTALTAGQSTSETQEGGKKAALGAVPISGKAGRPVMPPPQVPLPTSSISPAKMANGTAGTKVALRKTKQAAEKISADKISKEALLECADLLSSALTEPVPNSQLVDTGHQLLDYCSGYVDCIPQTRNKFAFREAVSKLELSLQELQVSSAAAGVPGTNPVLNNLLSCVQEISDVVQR
# BTK-NanoLuc fusion = biological target: T2, BTK-NanoLuc fusion (Homo sapiens, UniProt Q06187); assay: NanoBRET cellular engagement of BTK; type: cell-based; conditions: for pIC50: HEK293 cells
# T2 construct: host or cells: HEK293
# T2 sequence (Q06187 whole entry, the tested form may be a part): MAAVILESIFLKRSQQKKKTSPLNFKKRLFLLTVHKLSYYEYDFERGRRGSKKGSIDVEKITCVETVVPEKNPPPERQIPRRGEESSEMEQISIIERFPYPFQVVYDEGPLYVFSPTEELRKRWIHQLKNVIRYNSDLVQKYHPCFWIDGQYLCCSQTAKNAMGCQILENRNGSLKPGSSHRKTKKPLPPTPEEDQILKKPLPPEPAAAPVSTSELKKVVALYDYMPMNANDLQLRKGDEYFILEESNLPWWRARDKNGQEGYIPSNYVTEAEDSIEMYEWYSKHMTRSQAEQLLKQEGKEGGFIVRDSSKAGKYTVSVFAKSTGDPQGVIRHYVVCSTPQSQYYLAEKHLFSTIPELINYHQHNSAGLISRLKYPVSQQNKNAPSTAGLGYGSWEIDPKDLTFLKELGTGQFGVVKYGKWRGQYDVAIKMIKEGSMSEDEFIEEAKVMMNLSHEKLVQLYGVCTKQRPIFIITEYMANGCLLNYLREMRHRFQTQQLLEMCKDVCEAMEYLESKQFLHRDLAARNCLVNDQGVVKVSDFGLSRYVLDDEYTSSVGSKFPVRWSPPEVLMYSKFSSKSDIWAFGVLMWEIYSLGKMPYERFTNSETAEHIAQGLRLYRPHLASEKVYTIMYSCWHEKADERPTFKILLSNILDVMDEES
# Protocol: NanoBRET Experiments: HEK293 cells were transfected with the BTK-NanoLuc fusion vector (Promega, #N2501) according to the manufacturer’s protocol. After […]
# Promega, #N2501) for 30 minutes. After an additional 30, 60, or 90 minutes the NanoBRET complete substrate plus inhibitor solution (3X solution in Opti-MEM I reduced serum medium, no phenol red, Promega, #N2501) was added to each well.
# After 5-10 minutes, the BRET ratio was measured using BMG Labtech CLARIOstar with preloaded filters for donor 450nm/80nm BP (band pass) and acceptor 610nm LP (long
# SRMS (Srm) = SRMS (Srm) (Homo sapiens, UniProt Q9H3Y6); assay: SelectScreen kinase profiling; type: biochemical; conditions: average of duplicate
# Chain of SRMS (Srm) (Q9H3Y6 whole entry): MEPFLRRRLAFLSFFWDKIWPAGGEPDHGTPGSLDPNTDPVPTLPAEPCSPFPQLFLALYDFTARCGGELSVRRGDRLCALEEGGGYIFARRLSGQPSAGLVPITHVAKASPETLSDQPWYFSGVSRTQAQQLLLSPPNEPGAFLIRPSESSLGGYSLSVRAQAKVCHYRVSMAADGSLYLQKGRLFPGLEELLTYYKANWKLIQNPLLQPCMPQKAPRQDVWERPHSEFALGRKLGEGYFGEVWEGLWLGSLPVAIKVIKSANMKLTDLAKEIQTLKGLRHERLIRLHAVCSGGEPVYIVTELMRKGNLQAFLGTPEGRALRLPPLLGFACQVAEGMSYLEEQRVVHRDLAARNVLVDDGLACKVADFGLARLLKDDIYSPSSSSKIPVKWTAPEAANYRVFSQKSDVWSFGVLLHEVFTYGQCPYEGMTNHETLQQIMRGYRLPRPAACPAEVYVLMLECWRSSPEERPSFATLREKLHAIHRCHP
# [1] = BTK selectivity from IC50 values
# Chain of BTK (Q06187 whole entry): as the sequence (Q06187 whole entry, the tested form may be a part) above
# Chain of FYN (P06241 whole entry): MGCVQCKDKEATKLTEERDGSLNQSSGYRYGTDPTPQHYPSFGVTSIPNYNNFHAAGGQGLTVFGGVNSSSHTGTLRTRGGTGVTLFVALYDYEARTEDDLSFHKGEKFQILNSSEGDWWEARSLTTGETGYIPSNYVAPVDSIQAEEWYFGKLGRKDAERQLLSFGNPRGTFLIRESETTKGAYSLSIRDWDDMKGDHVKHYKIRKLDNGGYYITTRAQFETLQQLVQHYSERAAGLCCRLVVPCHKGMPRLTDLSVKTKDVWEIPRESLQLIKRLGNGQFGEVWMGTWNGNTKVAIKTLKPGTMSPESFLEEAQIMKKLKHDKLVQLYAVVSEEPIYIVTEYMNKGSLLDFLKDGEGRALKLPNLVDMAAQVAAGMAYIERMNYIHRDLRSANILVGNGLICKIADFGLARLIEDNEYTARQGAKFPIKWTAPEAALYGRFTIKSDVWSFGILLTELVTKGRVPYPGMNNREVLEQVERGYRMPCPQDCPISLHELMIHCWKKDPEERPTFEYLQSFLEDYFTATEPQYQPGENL
smiles,measurement,setting,value
C=CC(=O)N1CCCC(n2nc(-c3c(C)cc(Oc4ccccc4)cc3C)c3c(N)ncnc32)C1 (stereo in doubt) [Compound 3],inhibition at 1 µM,BTK,100%
same,pIC50,"BTK; BTK IC50, Z′-Lyte, [ATP] Km app, 1 h incubation, duplicate",7.89
same,Hillslope,BTK; BTK IC50 curve,1.25
same,inhibition at 0.000495 µM,BTK; read-out: % Inhibition Point 1,-4%
same,inhibition at 0.00152 µM,BTK; read-out: % Inhibition Point 1,11%
same,inhibition at 0.00457 µM,BTK; read-out: % Inhibition Point 1,23%
same,inhibition at 0.0137 µM,BTK; read-out: % Inhibition Point 1,49%
same,inhibition at 0.0412 µM,BTK; read-out: % Inhibition Point 1,84%
same,inhibition at 0.123 µM,BTK; read-out: % Inhibition Point 1,97%
same,inhibition at 0.37 µM,BTK; read-out: % Inhibition Point 1,98%
same,inhibition at 1.11 µM,BTK; read-out: % Inhibition Point 1,100%
same,inhibition at 3.33 µM,BTK; read-out: % Inhibition Point 1,98%
same,inhibition at 10 µM,BTK; read-out: % Inhibition Point 1,98%
same,inhibition at 0.000495 µM,BTK; read-out: % Inhibition Point 2,1%
same,inhibition at 0.00152 µM,BTK; read-out: % Inhibition Point 2,5%
same,inhibition at 0.00457 µM,BTK; read-out: % Inhibition Point 2,22%
same,inhibition at 0.0137 µM,BTK; read-out: % Inhibition Point 2,49%
same,inhibition at 0.0412 µM,BTK; read-out: % Inhibition Point 2,80%
same,inhibition at 0.123 µM,BTK; read-out: % Inhibition Point 2,96%
same,inhibition at 0.37 µM,BTK; read-out: % Inhibition Point 2,98%
same,inhibition at 1.11 µM,BTK; read-out: % Inhibition Point 2,102%
same,inhibition at 3.33 µM,BTK; read-out: % Inhibition Point 2,97%
same,inhibition at 10 µM,BTK; read-out: % Inhibition Point 2,99%
same,inhibition at 1 µM,FYN,19%
same,kinact/KI,BMX,65000 M⁻¹ s⁻¹
same,BMX kinact/Ki,BMX; listed as Dimethyl Analog,"64,800 M^-1S^-1"
same,kinact,BMX,0.0053 s⁻¹
same,pIC50,EGFR (ErbB1),< 5.00
same,inhibition at 1 µM,EGFR (ErbB1),0%
same,"EGFR, BTK/Kinase",EGFR (ErbB1); [1],> 781 x
same,Hillslope,EGFR (ErbB1),0.96
same,EGFR IC50,"EGFR (ErbB1); Z′-Lyte, [ATP] Km app, 1 h incubation, duplicate",no observable activities
same,inhibition at 0.000495 µM,EGFR (ErbB1); read-out: % Inhibition Point 1,-4%
same,inhibition at 0.00152 µM,EGFR (ErbB1); read-out: % Inhibition Point 1,-1%
same,inhibition at 0.00457 µM,EGFR (ErbB1); read-out: % Inhibition Point 1,-2%
same,inhibition at 0.0137 µM,EGFR (ErbB1); read-out: % Inhibition Point 1,-1%
same,inhibition at 0.0412 µM,EGFR (ErbB1); read-out: % Inhibition Point 1,-6%
same,inhibition at 0.123 µM,EGFR (ErbB1); read-out: % Inhibition Point 1,1%
same,inhibition at 0.37 µM,EGFR (ErbB1); read-out: % Inhibition Point 1,5%
same,inhibition at 1.11 µM,EGFR (ErbB1); read-out: % Inhibition Point 1,10%
same,inhibition at 3.33 µM,EGFR (ErbB1); read-out: % Inhibition Point 1,20%
same,inhibition at 10 µM,EGFR (ErbB1); read-out: % Inhibition Point 1,41%
same,inhibition at 0.000495 µM,EGFR (ErbB1); read-out: % Inhibition Point 2,3%
same,inhibition at 0.00152 µM,EGFR (ErbB1); read-out: % Inhibition Point 2,-2%
same,inhibition at 0.00457 µM,EGFR (ErbB1); read-out: % Inhibition Point 2,1%
same,inhibition at 0.0137 µM,EGFR (ErbB1); read-out: % Inhibition Point 2,0%
same,inhibition at 0.0412 µM,EGFR (ErbB1); read-out: % Inhibition Point 2,-3%
same,inhibition at 0.123 µM,EGFR (ErbB1); read-out: % Inhibition Point 2,-2%
same,inhibition at 0.37 µM,EGFR (ErbB1); read-out: % Inhibition Point 2,1%
same,inhibition at 1.11 µM,EGFR (ErbB1); read-out: % Inhibition Point 2,5%
same,inhibition at 3.33 µM,EGFR (ErbB1); read-out: % Inhibition Point 2,22%
same,inhibition at 10 µM,EGFR (ErbB1); read-out: % Inhibition Point 2,45%
same,inhibition at 1 µM,RET M918T,6%
same,inhibition at 1 µM,TNK1,2%
same,inhibition at 1 µM,LYN B,28%
same,inhibition at 1 µM,FLT3,13%
same,inhibition at 1 µM,HCK,19%
same,"HCK, BTK/Kinase",HCK; [1],180 x
same,pIC50,"HCK; HCK IC50, Z′-Lyte, [ATP] Km app, 1 h incubation, duplicate",5.64
same,Hillslope,HCK; HCK IC50 curve,1.00
same,inhibition at 0.000495 µM,HCK; read-out: % Inhibition Point 1,10%
same,inhibition at 0.00152 µM,HCK; read-out: % Inhibition Point 1,9%
same,inhibition at 0.00457 µM,HCK; read-out: % Inhibition Point 1,10%
same,inhibition at 0.0137 µM,HCK; read-out: % Inhibition Point 1,6%
same,inhibition at 0.0412 µM,HCK; read-out: % Inhibition Point 1,9%
same,inhibition at 0.123 µM,HCK; read-out: % Inhibition Point 1,10%
same,inhibition at 0.37 µM,HCK; read-out: % Inhibition Point 1,19%
same,inhibition at 1.11 µM,HCK; read-out: % Inhibition Point 1,32%
same,inhibition at 3.33 µM,HCK; read-out: % Inhibition Point 1,48%
same,inhibition at 10 µM,HCK; read-out: % Inhibition Point 1,62%
same,inhibition at 0.000495 µM,HCK; read-out: % Inhibition Point 2,7%
same,inhibition at 0.00152 µM,HCK; read-out: % Inhibition Point 2,7%
same,inhibition at 0.00457 µM,HCK; read-out: % Inhibition Point 2,5%
same,inhibition at 0.0137 µM,HCK; read-out: % Inhibition Point 2,10%
same,inhibition at 0.0412 µM,HCK; read-out: % Inhibition Point 2,8%
same,inhibition at 0.123 µM,HCK; read-out: % Inhibition Point 2,15%
same,inhibition at 0.37 µM,HCK; read-out: % Inhibition Point 2,15%
same,inhibition at 1.11 µM,HCK; read-out: % Inhibition Point 2,29%
same,inhibition at 3.33 µM,HCK; read-out: % Inhibition Point 2,49%
same,inhibition at 10 µM,HCK; read-out: % Inhibition Point 2,65%
same,inhibition at 1 µM,ABL2 (Arg),0%
same,NanoBRET HillSlope,BTK-NanoLuc fusion; 30 + 30,-1.148
same,NanoBRET HillSlope,BTK-NanoLuc fusion; 30 + 60,-1.118
same,NanoBRET HillSlope,BTK-NanoLuc fusion; 30 + 90,-1.419
same,NanoBRET HillSlope,BTK-NanoLuc fusion; 30 min Inc,-1.230
same,pIC50,BTK-NanoLuc fusion; 30 min,6.09
same,pIC50,BTK-NanoLuc fusion; 60 min (30 + 30),6.32
same,pIC50,BTK-NanoLuc fusion; 90 min (30 + 60),6.47
same,pIC50,BTK-NanoLuc fusion; 90 min post compound addition,6.50
same,pIC50,BTK-NanoLuc fusion; 120 min (30 + 90),6.50
same,inhibition at 1 µM,SRMS (Srm),22%
"C=CC(=O)N1CCC[C@@H](n2nc(-c3ccc(Oc4ccccc4)cc3C)c3c(N)ncnc32)C1 [Compound 2, (R)-1-(3-(4-amino-3-(2-methyl-4-phenoxyphenyl)-1H-pyrazolo[3,4-d]pyrimidin-1-yl)piperidin-1-yl)prop-2-en-1-one]",kinact/KI,BMX,81000 M⁻¹ s⁻¹
same,BMX kinact/Ki,BMX; listed as Monomethyl Analog,"80,800 M^-1S^-1"
same,kinact,BMX,0.0065 s⁻¹
same,pIC50,EGFR (ErbB1),6.71
same,inhibition at 1 µM,EGFR (ErbB1),89%
same,Hillslope,EGFR (ErbB1),1.08
same,inhibition at 0.000495 µM,EGFR (ErbB1); read-out: % Inhibition Point 1,-6%
same,inhibition at 0.00152 µM,EGFR (ErbB1); read-out: % Inhibition Point 1,-4%
same,inhibition at 0.00457 µM,EGFR (ErbB1); read-out: % Inhibition Point 1,-2%
same,inhibition at 0.0137 µM,EGFR (ErbB1); read-out: % Inhibition Point 1,4%
same,inhibition at 0.0412 µM,EGFR (ErbB1); read-out: % Inhibition Point 1,10%
same,inhibition at 0.123 µM,EGFR (ErbB1); read-out: % Inhibition Point 1,38%
same,inhibition at 0.37 µM,EGFR (ErbB1); read-out: % Inhibition Point 1,60%
same,inhibition at 1.11 µM,EGFR (ErbB1); read-out: % Inhibition Point 1,89%
same,inhibition at 3.33 µM,EGFR (ErbB1); read-out: % Inhibition Point 1,92%
same,inhibition at 10 µM,EGFR (ErbB1); read-out: % Inhibition Point 1,97%
same,inhibition at 0.000495 µM,EGFR (ErbB1); read-out: % Inhibition Point 2,-1%
same,inhibition at 0.00152 µM,EGFR (ErbB1); read-out: % Inhibition Point 2,-6%
same,inhibition at 0.00457 µM,EGFR (ErbB1); read-out: % Inhibition Point 2,-4%
same,inhibition at 0.0137 µM,EGFR (ErbB1); read-out: % Inhibition Point 2,5%
same,inhibition at 0.0412 µM,EGFR (ErbB1); read-out: % Inhibition Point 2,8%
same,inhibition at 0.123 µM,EGFR (ErbB1); read-out: % Inhibition Point 2,35%
same,inhibition at 0.37 µM,EGFR (ErbB1); read-out: % Inhibition Point 2,63%
same,inhibition at 1.11 µM,EGFR (ErbB1); read-out: % Inhibition Point 2,82%
same,inhibition at 3.33 µM,EGFR (ErbB1); read-out: % Inhibition Point 2,96%
same,inhibition at 10 µM,EGFR (ErbB1); read-out: % Inhibition Point 2,95%
same,pIC50,BTK-NanoLuc fusion; 30 min,6.68
same,pIC50,BTK-NanoLuc fusion; 60 min (30 + 30),6.81
same,pIC50,BTK-NanoLuc fusion; 90 min (30 + 60),6.93
same,pIC50,BTK-NanoLuc fusion; 90 min post compound addition,6.96
same,pIC50,BTK-NanoLuc fusion; 120 min (30 + 90),6.96
